The results in this text go back to patent publication US6890906B2, “Method for controlling angiogenesis in animals” (Glycogenesys, Inc., priority 2001, dated 2005).

Where “and” joins values, the source holds several entries; their conditions need not be identical. Identical values can stand only once. Like-named read-outs stand apart in the source and are kept apart here.

The test system of experiment [1] is human umbilical vein endothelial cells (HUVEC). The experiment can be described thus: Inhibition of VEGF-induced HUVEC cell migration by modified pectin in transwell plate. The experiment is classed as cell-based. To be noted: VEGF 30 ng/ml Only (positive control, no GCS-100). How it is done: Following incubation, the membranes were fixed and stained. […] Three runs were made.
The material comprised a modified pectin which is commercially available from GlycoGenesys, Inc. of Boston, Mass., under the designation GCS-100. In this experimental series, HUVEC cells were incubated in a transwell plate with VEGF, and varying concentrations of the therapeutic material, under conditions as described hereinabove. The concentration of VEGF was 30 ng/ml. In one group of experiments, cells were incubated with VEGF in the absence of the carbohydrate material, and these experiments served as a positive control. In another group of experiments, cells were incubated with growth medium and no VEGF or therapeutic carbohydrate, and this group served as a negative control. In the remaining experiments, concentrations of the GCS-100 ranging from 0.001% to 0.1% were employed.

The test system is the same in experiment [2]. Particulars: for AVERAGE cell count: average of runs; for Cell count (cells that migrated through the membrane): single runs, 4 hours, 37° C. How it is done: In a first portion of the experimental series, the effect of the chemoattractant vascular endothelial growth factor (VEGF) on human umbilical vein endothelial cells (HUVEC) was quantified. The experiment was carried out in a transwell plate, and in preparation therefor, HUVEC cells were grown to approximately 80% confluency. The cells were suspended in basal media and placed in a transwell plate on fibronectin coated membrane inserts at 50,000 cells per insert. Varying concentrations of VEGF were added to the bottom chamber of the transwell plate, and the plates incubated for 4 hours at 37° C. with a 5% CO2 atmosphere. Following incubation, the membranes were fixed and stained. Nonmigrated cells were removed by mechanical abrasion and cells that migrated through the membrane were counted. […] Three runs were made.

Take “vascular endothelial growth factor [VEGF]”: the AVERAGE cell count in experiment [1] (average) amounted to 1244; in experiment [2] (1 ng/ml VEGF) it was 734; in experiment [2] (3 ng/ml VEGF), 1043; in experiment [2] (10 ng/ml VEGF), 1218; in experiment [2] (30 ng/ml VEGF), 1162; in experiment [2] (100 ng/ml VEGF) it was 1210. Moreover, the “Cell count (migrated cells)” value in experiment [1] (single runs) was 1322 and 1167. Further, the “Cell count (cells that migrated through the membrane)” value in experiment [2] (1 ng/ml VEGF) was 607 and 766 and 830; in experiment [2] (3 ng/ml VEGF) it was 950 and 1136; in experiment [2] (10 ng/ml VEGF), 1144 and 938 and 1573; in experiment [2] (30 ng/ml VEGF) it was 898 and 1448 and 1140; in experiment [2] (100 ng/ml VEGF) it was 1650 and 901 and 1078. For the same substance, in experiment [2] (VEGF concentrations of 10-30 ng/ml), the chemotactic effect entry is on record as “strong chemotactic effect”.
